Literature values, collected in patent US20200390743A1, “Methods and Compositions For Improving Outcomes of Cancer Patients” (Reven IP HoldCo LLC, priority 2019, published 2020).

What was measured:
[1] = rats, 100 mg/kg body weight daily
[2] = 241 osteoporotic women

For `CC(C)=CCC/C(C)=C/CC/C(C)=C/CC/C(C)=C/CC1=C(C)C(=O)c2ccccc2C1=O` [Vitamin K2], the “calcium in kidneys and aorta induced by megadose of synthetic vitamin D” value [1] is given as “inhibited the increase in calcium”, the “total cholesterol levels, lipid peroxidation, ester cholesterol deposition in the aorta and factor X activity in plasma” value (compared to the control group) is given as “reduce” and the “atherosclerotic plaque progression in the aorta and pulmonary arteries” value (rabbits, 1-10 mg/kg daily for 10 weeks) is given as “inhibited the atherosclerotic plaque progression”. For the same compound, the fracture incidence ([2]; 45 mg/day vitamin K2 and 150 mg elemental calcium, two years, 30% in control group) was 10% and the “lumbar bone mineral density” value ([2]; 45 mg/day, after two years) was “maintain”.
